{"source": "paper PMC7614683", "about": "“A small molecule PI3Kα activator for cardioprotection and neuroregeneration” (Nature, 2023)", "key": {"A549 cells": {"tested_on": "A549 cells", "assay": "pAKT S473 ELISA, A549", "format": "cell-based, human", "settings": "15 min; 5-10 μM 1938", "method": "A549 cells were seeded at 50,000 cells per well in 96-well plates in DMEM (10% FBS + 1% P/S). The next day cells were washed once with PBS before addition of serum-free DMEM for 24 h. On the day of treatment, cells were incubated in fresh serum-free DMEM prior to treatment. Compounds solubilised to 10 mM in DMSO were diluted 1:3 in an 8-point concentration response curve in DMSO. Concentration response curves were diluted in serum-free DMEM by transfer into intermediate plates using a BRAVO liquid handler (Agilent). Intermediate plates were then used to treat cell plates using the BRAVO liquid handler. […] Cell plates were treated for 15 min at 37°C, 5% CO2 before being washed with ice-cold PBS and lysed in lysis buffer […] Systems #895561) and freezing at -80°C. Levels of pAKT^S473 were determined using the phospho-AKT (S473) pan-specific Duoset IC ELISA (R&D Systems #DY[…]) in 96-well white high-binding plates (Corning #3922) according to manufacturer's instructions. Endpoint luminescence was measured using a Sense (Hidex) platereader. […] Data were transformed and EC50 data were determined by variable slope (4 parameters) non-linear regression using Prism 7 (Graphpad)."}, "PI3Kα-WT A549 cells": {"tested_on": "PI3Kα-WT A549 cells", "assay": "TIRF microscopy of PIP3 reporter, PI3Kα-WT A549", "format": "cell-based, human", "settings": "1938, then BYL719 0.5 μM", "method": "Phosphoinositide reporters used were GFP-PH-ARNO^I303Ex2 (PIP3 reporter[41]) and mCherry-cPH-TAPP1x3 (PI(3,4)P2 reporter[41]). TIRF microscopy allows selective imaging of the small cell volume, including the plasma membrane, directly adjacent to the coverslip onto which cells have been seeded. HeLa or A549 cells were seeded in Matrigel-coated (Corning #354230; diluted in Opti-MEM at 1:50) 8-well chamber slides (glass bottom, 1.55 refractive index; Thermo Fisher Scientific #155409) at a density of 5,000 cells/well. […]\nImage analyses of total reporter intensities were performed with the Fiji open source image analysis package. The region of interest (ROI) corresponding to the footprint of the individual cell across time points were defined using minimal intensity projection to select only pixels present across all time points, following prior subtraction of camera noise (rolling ball method, radius = 500 pixels) and xy drift correction, intensity levels over time were measured. […] All other quantifications were performed using the open source software R/RStudio. The values plotted in Fig. 3d (iii) represent mean±SEM, following signal scaling to minimum and maximum values of the normalised fluorescence intensity for each time point (Fn(t)). […]"}, "PI3Kα-KO A549 cells": {"tested_on": "PI3Kα-KO A549 cells", "assay": "TIRF microscopy of PIP3 reporter, PI3Kα-KO A549", "format": "cell-based, human", "description": "Generation of pooled PIK3CA-null A549 cells was outsourced to Synthego Corporation. Briefly, the PIK3CA gene was targeted with synthetic ribonucleoprotein (RNP) complexes including the following single guide RNA (sgRNA) sequence: 5’-[…]-3’. This sequence is located within PIK3CA exon 3 and covers the coding sequence preceding the p110α RAS binding domain, with the Cas9 cut site corresponding to amino acids 156/157 of p110α). In parallel, control cultures were exposed to the Cas9 protein without sgRNA, henceforth referred to as “WT cultures”. Single-cell clones were established from both WT and targeted cultures by limiting dilution, thereby ensuring seeding of maximum 1 cell per well of a 96-well plate. To promote recovery, subcloned cells in 96-wells were cultured in a 1:1 mixture of standard A549 complete medium and conditioned medium. Conditioned medium was prepared from WT cultures 2 days post-passaging by centrifuging the medium at 1000g for 10 min, followed by 0.22 μm PES filtration and storage at 4°C (-80°C for storage exceeding 2 weeks). The medium was replenished every 2-3 days, as gently as possible to prevent cells from dislodging. Once cells reached sub-confluence, they were expanded to 24-well plates and 25 cm[2] flasks, followed by genotyping and cell banking. […]"}, "rat sciatic nerve": {"tested_on": "rat sciatic nerve", "assay": "pAkt generation in exposed rat sciatic nerves", "format": "in vivo", "settings": "direct injection or bathing, 1938 5 μM, 30 min", "method": "To assess if 1938 could induce pAkt generation in exposed rat sciatic nerves, adult male Sprague Dawley rats (>250g; n=2) were anaesthetised using isoflurane, the left sciatic nerve was exposed and injected with 2 μl vehicle (sterile dH2O) or 1938 (5 μM in sterile dH2O). Meanwhile the right sciatic nerve was exposed and bathed in 250 μl of vehicle (sterile dH2O) or 1938 (5 μM in sterile dH2O). Each animal received one vehicle and one compound treatment. The treatments were left on for 30 min prior to washing the bathed nerves with sterile PBS and culling via sodium pentobarbital injection according to local regulations. Nerves were then harvested, washed in fresh 4°C PBS and stored in a fresh vial before snap freezing in liquid nitrogen. Frozen sciatic nerves were homogenised in RIPA buffer supplemented with protease and phosphatase inhibitors using a mortar and pestle homogeniser. The subsequent crude lysates were centrifuged at 10,000xg for 10 min at 4°C, the supernatant harvested and stored at -80°C prior to automated western blot (Wes) analysis for pAkt and controls (Extended Data Fig. 9a; bottom panel)."}}, "data": [{"smiles": "CCN1CCN(c2ccc(Nc3cc(Nc4cccc5c4N(C(C)=O)CC5)ccn3)cc2)CC1", "note": "[Compound 1938]", "values": [{"measurement": "pAKT^S473 generation", "setting": "A549 cells", "value": "~ 200 % of Emax of 1 μM insulin"}, {"measurement": "plasma membrane PIP3 (biosensor)", "setting": "PI3Kα-WT A549 cells", "value": "acute plasma membrane-associated PIP3 production"}, {"measurement": "plasma membrane PIP3 (biosensor)", "setting": "PI3Kα-KO A549 cells", "value": "not seen"}, {"measurement": "pAKT in exposed sciatic nerves", "setting": "rat sciatic nerve", "value": "pAKT induction"}]}]}
